Here are results for eleven compounds from patent publication US4816482A, “Radioprotective agents having an amino-thioalkyl structure” (priority 1983, dated 1989).

Series [1] deals with mice. The experiment in a line: Acute toxicity (LD50), i.p. The series is classed as in vivo. Particulars: for toxicity (in words): mouse, in vivo.
Series [2] can be described thus: Acute toxicity (LD50), i.p. The series is classed as in vivo, mice. Particulars: mouse, in vivo, ip.
The subject of series [3] is mice. The experiment in a line: Radioprotective activity: survival at the 30th day after irradiation. The series is classed as in vivo. As to conditions: for radioprotective activity (in words): mouse, in vivo; for responders at 600 mg/kg: 600 mg/kg i.p. How it is done: This study of radioprotective activity was carried out according to a technique described by M. Fatome at al., Eur. J. Med. Chem. 1977, 12, (1), 93. […] This dose is equal to 950 Rad.
More complete studies are recorded in Table II.

The subject of series [4] is mice. As to conditions: cited from earlier work.
In series [5] the test system is normal tissues / tumours. Particulars: literature knowledge; cited from earlier work.
For series [6], the system named is bone marrow. In words: FRD on bone marrow. Particulars: in vivo.
Series [7] concerns EMT 6 tumours. In words: Gain factor (bone marrow FRD/tumour FRD) on EMT 6 tumours. Particulars: 5×10^-1 survival level. The series is classed as in vivo.
The conditions of series [8]: cited from earlier work.
Series [9] can be described thus: Chemical stability. The series is classed as physicochemical. As to conditions: I 102 compared with WR 2721.
In series [10] the test system is normal tissues / tumours. In words: Selectivity of protection: normal tissues versus tumours. Particulars: EMT6 and HT19 tumours, except if necrotised.

SMILES strings stand for the structures. “Also recorded” adds a separate entry of the source. Counter-ions that a name gives are not always drawn. Like-named read-outs stand apart in the source and are kept apart here.

Regarding `CC(=O)NCCSC(=O)CN.O=C(O)C(F)(F)F` [Example 34], the LD50 (as a rule, the dose expected to kill half of the subjects tested) in [1] (Table I) is 1,000 mg/kg; in [2] (Table II) it was 1000 mg/kg. For the same compound, the “radioprotective activity (in words)” value in series [3] is recorded as “slight radioprotective action”.

Turning to `CC(C)(N)CSS(=O)(=O)O` [H2 N--(C(CH3)2 --CH2 --S--SO3 H], the “protection (in words)” value in [4] (600 mg/kg, J. R. Piper et al., J. Med. Chem. 1966) is given as “good protection”.

In the case of `CC(=O)OC(CNC(=O)CN)CSC(C)=O` (stereo not drawn) [Example 32, TRIFLUOROACETATE], in [1], the “toxicity (in words)” value is “low toxicity”. Moreover, the values for the LD50 in series [2], in series [2] (Table I) and in series [2] (Table II) were more than 1500 mg/kg, 1500 mg/kg and 1500 mg/kg, respectively. The “survival at 30 days” value in series [3] (250 mg/kg, 900 Rad) was determined as 70%; in series [3] (1,000 mg/kg, 1,100 Rad) it was 80%. For the same compound, the responders at 1000 mg/kg in [3] (Mus musculus, light or radiation study, ip, 720 h, Table I, 1,000 mg/kg i.p., 15' before irradiation at 900 or 950 Rad, read-out: % survival at the 30th day) was 100%; in [3] (Mus musculus, light or radiation study, ip, 720 h, Table II, 1,000 mg/kg i.p., 15' before irradiation, 900 Rad, read-out: % survival at 30 days), 100%; in [3] (Mus musculus, light or radiation study, ip, 720 h, Table II, dose not printed (1,000 mg/kg in text), 15' before irradiation, 1,100 Rad, read-out: % survival at 30 days), 80%. For the same compound, the responders at 250 mg/kg in series [3] (Mus musculus, light or radiation study, ip, 720 h, Table II, dose not printed (250 mg/kg in text), 15' before irradiation, 900 Rad, read-out: % survival at 30 days) amounted to 70%.

For `NCC(=O)NCCSC(=O)C(Cl)Cl.O=C(O)C(F)(F)F` [Example 10, N-GLYCYL-S-(DICHLOROACETYL)CYSTEAMINE TRIFLUOROACETATE], the LD50 in series [1] (Table I) is reported as 800 mg/kg. In [3] (Mus musculus, light or radiation study, ip, 720 h, Table I, 800 mg/kg i.p., 15' before irradiation at 900 or 950 Rad), this compound gave a responders at 800 mg/kg of 40%.

For `NCCCNCCSP(=O)(O)O` [WR 2721], the LD50 in series [1] is recorded as 950 mg/kg. For the same compound, the “selectivity of protection (in words)” value in series [5] was “protecting normal tissues against radiation-induced damage, while allowing solid tumors to bear alone the effect of the radiation; also recorded: concentrates selectively in healthy cells and not in cancer cells; also recorded: concentrating selectively in normal tissues (and not in cancer cells); also recorded: selectively protects normal tissues against radiation-induced damage”. Moreover, the “FRD on bone marrow” value in [6] stood at 2.7. In series [7], the “gain factor (bone marrow FRD/tumour FRD)” value came to 1.2. In series [8], the “solubility in water (in words)” value was “high solubility in water”. Also, in series [9], the “chemical stability (in words)” value is on record as “unstable; also recorded: not very stable”.

Regarding `NCC(O)CSP(=O)(O)O` (stereo not drawn) [WR 77913], the “survival at 30 days” value in series [4] (mice, 400 mg/kg (i.p.) 30 minutes before irradiation of 950, 970 Rad) is given as 100%.

With `CC(=O)SCCNC(=O)[C@H](C)N.O=C(O)C(F)(F)F` [Example 22], the LD50 is 1,250 mg/kg in series [1] (Table I) and 1250 mg/kg in [2] (Table II). Further, the “toxicity (in words)” value in [1] is recorded as “low toxicity”. Moreover, the “radioprotective activity (in words)” value in series [3] is recorded as “good radioprotection”.

With `CC(=O)SCCNC(=O)CN` [I 102, N-glycyl-S-acetylcysteamine], the LD50 in series [2] was more than 1500 mg/kg. The “FRD on bone marrow” value in series [6] worked out at 1.4. In addition, the “gain factor (bone marrow FRD/tumour FRD)” value in series [7] was found to be 1.2. Further, the “protection of tumours (in words)” value in series [10] was “does not protect tumours (or protects them to only a small extent)”.

With `C[C@H](N)C(=O)NCCSSCCNC(=O)[C@H](C)N.O=C(O)C(F)(F)F.O=C(O)C(F)(F)F` [Example 45, N,N'-[…] DI(TRIFLUOROACETATE)], the “toxicity (in words)” value in [1] was “low toxicity”. In addition, the LD50 in series [2] (Table I) and in series [2] (Table II) was 1200 mg/kg each time. The responders at 600 mg/kg in series [3] (Mus musculus, ip, 720 h, read-out: % survival at 30 days, Table II, 4th entry, time and Rad not given) turned out to be 50%; in series [3] (Mus musculus, light or radiation study, ip, 720 h, read-out: % survival at 30 days, Table II, 2 (hours, cut off) before irradiation, 900 Rad) it was 50%; in [3] (Mus musculus, light or radiation study, ip, 720 h, read-out: % survival at 30 days, Table II, 15' before irradiation, 900 Rad) it was 100%; in series [3] (Mus musculus, light or radiation study, ip, 720 h, read-out: % survival at the 30th day, Table I, 15' before irradiation at 900 or 950 Rad) it was 100%. Also, in [3] (Mus musculus, light or radiation study, ip, 720 h, read-out: % survival at 30 days, Table II, 150 mg/kg i.p., 15' before irradiation, 900 Rad), the responders at 150 mg/kg amounted to 20%. The “radioprotective activity (in words)” value in [3] was “good radioprotection”.

For the compound `NCCS` [cysteamine, β-mercaptoethylamine], the “selectivity of protection (in words)” value in series [5] was “non-selective protection of the cells”.

Take `N[C@@H](CS)C(=O)O` [cysteine]: in series [5], the “selectivity of protection (in words)” value is reported as “non-selective protection of the cells”.
